Experimental data published in publication PMC10458698, “Characterization of the interferences of systemic azole antifungal drugs with adrenal steroid biosynthesis using H295R cells and enzyme activity assays” (Current Research in Toxicology, 2023).
“And” between values parts separate entries of the source, which are not always exact repeats. Equal values may be shown once. Read-outs that look alike come from different tables or passages of the source.

Legend:
[1] = tested on: 11β-HSD2; parameters: method as in Beck et al., 2017, Beck et al., 2020a; conditions: ref Beck et al., 2017, Beck et al., 2020a; cited from earlier work
[2] = tested on: H295R cells; assay: Steroidogenesis assay in forskolin-stimulated H295R cells, UHPLC-MS/MS; assay type: cell-based, human; conditions: 48 h
Protocol: Briefly, 200,000 cells/mL between passages 5 and 10 were seeded in a 24-well plate. After 24 h, the medium was replaced by fresh medium containing reference or test compounds. […] As a time zero control, complete medium was incubated without cells. After 48 h of incubation, the cell culture supernatant was collected and stored at −20 °C until steroid quantification was performed by ultra-high liquid chromatography tandem mass spectrometry (UHPLC-MS/MS). All experiments were performed three times independently in technical duplicates.
Using water, the sample volume was adapted to 1 mL. Samples were extracted using Oasis HLB 3 cc SPE cartridge (30 mg, 30 μm particle size, Waters, Massachusetts, USA). Columns were preconditioned with 1 mL ethyl acetate and water prior to application of samples. After sample loading, columns were washed three times with 1 mL methanol (10% v/v) and water before samples were eluted applying 0.75 mL ethyl acetate twice. Eluates were evaporated to dryness and reconstituted in 50 µL methanol. Samples were applied to a reverse phase column (Waters Acquity UPLC BEH C18, 1.7 μm, 2.1 mm × 150 mm). […] Applied mobile phases consisted of water, acetonitrile and formic acid (95/5/0.1; v/v/v and 5/95/0.1; v/v/v). For data analysis, Hunter software version B.09.00 (Agilent Technologies) was used. Lower limit of detection (LOD), lower limit of quantification (LLOQ), and upper limit of quantification (ULOQ) are shown in Table 1.

[3] = target: T1, CYP17A1 17α-hydroxylase (Homo sapiens, UniProt P05093); assay: CYP17A1 17α-hydroxylase activity assay, microsomes of transfected COS-1 cells; assay type: biochemical; conditions: cell-free; for inhibition of CYP17A1 17α-hydroxylase: in words; for IC50: progesterone 500 nM, 10 min, read-out: IC50 CYP17A1 17α-hydroxylase mean
T1 construct: expressed in transfected cells; host or cells: COS-1 cells, transient transfection, microsomal fraction
T1 sequence (P05093 1-508): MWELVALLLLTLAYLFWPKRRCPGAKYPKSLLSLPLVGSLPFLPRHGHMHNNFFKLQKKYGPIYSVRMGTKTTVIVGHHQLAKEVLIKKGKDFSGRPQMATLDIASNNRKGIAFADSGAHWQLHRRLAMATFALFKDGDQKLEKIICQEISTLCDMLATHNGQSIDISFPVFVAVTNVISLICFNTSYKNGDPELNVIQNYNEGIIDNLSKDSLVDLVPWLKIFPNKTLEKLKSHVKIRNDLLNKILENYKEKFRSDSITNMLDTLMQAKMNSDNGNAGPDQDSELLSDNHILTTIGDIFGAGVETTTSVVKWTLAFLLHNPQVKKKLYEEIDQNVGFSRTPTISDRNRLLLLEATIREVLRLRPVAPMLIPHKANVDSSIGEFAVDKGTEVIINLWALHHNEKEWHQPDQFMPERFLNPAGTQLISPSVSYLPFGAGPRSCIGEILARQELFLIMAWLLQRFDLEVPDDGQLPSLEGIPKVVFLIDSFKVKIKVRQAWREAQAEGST
Protocol: (§1) Microsomes were prepared from COS-1 cells transiently transfected with plasmids for either CYP17A1 and POR for CYP17A1-hydroxylase assay (human CYP17A1 was available in our own plasmid collection after cloning into pcDNA3, POR was ordered from Genescript, Piscataway, USA, clone ID OHu25584C), CYP17A1, POR and cytochrome b5 for CYP17A1 17,20-lyase assay (cytochrome b5 was from Genescript, clone ID OHu09495D), POR and CYP21A2 (Genescript, CYP21A2 clone ID OHu18602D), or 3β-HSD2 (Genescript, clone ID OHu14034D). Transfection was performed using PEI and equal amounts of required plasmids with a total DNA amount of 8 µg per transfection of 3,000,000 cells. After overnight incubation, cells were washed with prewarmed PBS before adding ice-cold PBS. Cells were collected and centrifuged at 600 × g for 4 min at 4 °C, washed with ice cold PBS and centrifuged again. The pellet was resuspended in a resuspension buffer (20 mM Tris, pH 7.5, 50 mM KCl, 2 mM MgCl2, 0.25 M sucrose). Cells were disrupted with 30 S by a glass potter (2 cm^3) as described above. The homogenate was centrifuged for 20 min at 12,000 × g and 4 °C. Microsomes were pelleted by ultracentrifugation at 100,000 × g for 1 h at 4 °C. The pellet was resuspended in reaction buffer and the protein concentration determined using the Pierce Protein BCA kit as described above.
(§2) Microsomal protein (250 µg/mL) was preincubated with 1 mM NADPH and the compound of interest in reaction buffer for 10 min. The reaction was started by adding progesterone spiked with a radioactive tracer (final activity 0.025 mCi) to a final concentration of 500 nM. After 10 min of incubation at 37 °C the reaction was stopped by adding enzyme substrate and product at a final concentration of 1 mM in methanol, followed by shock-freezing in liquid nitrogen. Steroids were separated by thin layer chromatography on SIL G-25 UV254 TLC plates (Macherey-Nagel, Düren, Germany) using chloroform and ethyl acetate (1:4; v:v). Bands were excised and radiolabeled steroids analyzed by scintillation counting using […] Plus cocktail (Zinsser Analytic, Frankfurt am Main, Germany) and a β-counter (Packard, Connecticut, USA). Relative conversion was calculated based on total counts.

[4] = parameters: method as in earlier work; conditions: ref Zhang et al., 2018, Märtson et al., 2019, Vena et al., 2020, Risum et al., 2021, cited from earlier work
[5] = target: T2, CYP21A2 (Homo sapiens, UniProt P08686); assay: CYP21A2 activity assay, microsomes of transfected COS-1 cells; assay type: biochemical; conditions: cell-free; for IC50: progesterone 500 nM, 10 min
T2 construct: host or cells: COS-1 cells, transient transfection, microsomal fraction
T2 sequence (P08686 1-495): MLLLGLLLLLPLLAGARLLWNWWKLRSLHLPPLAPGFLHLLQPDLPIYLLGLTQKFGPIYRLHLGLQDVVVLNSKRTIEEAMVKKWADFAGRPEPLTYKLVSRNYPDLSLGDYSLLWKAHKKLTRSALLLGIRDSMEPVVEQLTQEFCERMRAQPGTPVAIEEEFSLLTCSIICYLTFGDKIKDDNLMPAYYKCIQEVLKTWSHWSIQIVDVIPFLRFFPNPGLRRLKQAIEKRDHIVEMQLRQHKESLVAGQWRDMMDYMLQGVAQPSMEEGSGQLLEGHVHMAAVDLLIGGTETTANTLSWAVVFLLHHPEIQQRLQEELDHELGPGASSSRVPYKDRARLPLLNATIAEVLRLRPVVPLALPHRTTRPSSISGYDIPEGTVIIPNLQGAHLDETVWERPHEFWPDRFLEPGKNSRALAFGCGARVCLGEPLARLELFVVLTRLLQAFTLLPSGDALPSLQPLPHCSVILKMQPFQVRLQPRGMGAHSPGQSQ
Protocol: as §1, §2

[6] = 30 nM, 10 μM forskolin, relative to forskolin control

| inhibition of CYP17A1 17α-hydroxylase [3] | IC50 [3] [µM] | IC50 [5] | inhibition of CYP21A2 ([5]; in words) | Compound | IC50 [1] [µM] | lower level of the CYP11B2 product aldosterone [2, 6] [%] | lower levels of the CYP11B1 products cortisol and corticosterone [2, 6] | inhibition of cortisol, corticosterone and aldosterone production ([2]; 300 nM and higher concentrations) | effect on the steroid profile ([2]; forskolin-stimulated, in words) | product/substrate ratio 17α-hydroxyprogesterone/progesterone (apparent CYP17A1 17α-hydroxylase activity) ([2]; forskolin-stimulated, in words) | product/substrate ratios corticosterone/11-DOC and cortisol/cortexolone (apparent CYP11B1 activity) ([2]; forskolin-stimulated, in words) | serum trough concentration [4] [µg/mL] | concentrations that block overall steroidogenesis ([2]; forskolin-stimulated) [µM] | effect on the steroid profile ([2]; forskolin-stimulated, in words, listed as Itraconazole) | serum trough concentration ([4]; molar value in brackets) [µM] |
| --- | --- | --- | --- | --- | --- | --- | --- | --- | --- | --- | --- | --- | --- | --- | --- |
| moderately inhibited | 1.12 | > 10 µM | – | CC[C@@H]([C@H](C)O)n1ncn(-c2ccc(N3CCN(c4ccc(OC[C@@H]5CO[C@@](Cn6cncn6)(c6ccc(F)cc6F)C5)cc4)CC3)cc2)c1=O [posaconazole, Posaconazole] | 0.46 | ~50 | about 40% | complete inhibition | did not affect progesterone and 11-DOC levels | indicated 17α-hydroxylase inhibition | decreased with increasing concentrations | > 0.7 | – | – | – |
| very weakly | > 10 | 8.1 µM and 8.14 µM | weak inhibition | C[C@@H](c1nc(-c2ccc(C#N)cc2)cs1)[C@](O)(Cn1cncn1)c1cc(F)ccc1F [isavuconazole] | ~10 | – | – | – | concentration-dependent decrease in all measured steroids | – | did not indicate an inhibition of CYP11B1 and CYP11B2 | 4 | ≥ 1 | – | ~1 |

| Compound | inhibition of CYP17A1 17α-hydroxylase [3] | IC50 [3] [µM] | IC50 [5] | inhibition of CYP21A2 ([5]; in words) | IC50 [1] [µM] | lower level of the CYP11B2 product aldosterone [2, 6] [%] | lower levels of the CYP11B1 products cortisol and corticosterone [2, 6] | inhibition of cortisol, corticosterone and aldosterone production ([2]; 300 nM and higher concentrations) | effect on the steroid profile ([2]; forskolin-stimulated, in words) | product/substrate ratio 17α-hydroxyprogesterone/progesterone (apparent CYP17A1 17α-hydroxylase activity) ([2]; forskolin-stimulated, in words) | product/substrate ratios corticosterone/11-DOC and cortisol/cortexolone (apparent CYP11B1 activity) ([2]; forskolin-stimulated, in words) | serum trough concentration [4] [µg/mL] | concentrations that block overall steroidogenesis ([2]; forskolin-stimulated) [µM] | effect on the steroid profile ([2]; forskolin-stimulated, in words, listed as Itraconazole) | serum trough concentration ([4]; molar value in brackets) [µM] |
| --- | --- | --- | --- | --- | --- | --- | --- | --- | --- | --- | --- | --- | --- | --- | --- |
| CCC(C)n1ncn(-c2ccc(N3CCN(c4ccc(OCC5COC(Cn6cncn6)(c6ccc(Cl)cc6Cl)O5)cc4)CC3)cc2)c1=O (centres unmarked) [itraconazole] | – | > 10 | > 10 µM | – | 0.14 | – | – | – | lowered the levels of all steroids in a concentration-dependent manner | – | less potently | 0.5 to 1 | ≥ 1 | inhibited the production of corticosterone and aldosterone and, to a lesser extent, of cortisol in a concentration-dependent manner | – |
